Experimental data reported in patent publication US7807400B2, “Methods for identifying chemical modulators of Ras superfamily GTPase activity” (The University of North Carolina at Chapel Hill, priority 2004, dated 2010).
Entries after “also recorded” stand apart in the source; their conditions may differ. Each block holds one molecule with its values, some of them ahead of it.

Tests used:
Format in all cases: biochemical
[1] = target: Dbs-mediated activation of RhoA (Homo sapiens, UniProt P61586); test: fluorescence guanine nucleotide exchange reaction, Dbs-mediated activation of RhoA; conditions: fluorescence after addition of GEF, versus DMSO vehicle control
Rac1 = Rac1 (Homo sapiens, UniProt P63000); test: complementary radiolabeled nucleotide exchange assay on Rac1
Cdc42 = Cdc42 (Homo sapiens, UniProt P60953); test: complementary radiolabeled nucleotide exchange assay on Cdc42
H-Ras = H-Ras (Homo sapiens, UniProt P01112); test: complementary radiolabeled nucleotide exchange assay on H-Ras
[2] = system: Tiam1-mediated activation of Rac1; test: fluorescence based guanine nucleotide exchange assay, Tiam1-mediated activation of Rac1
RhoA = RhoA (Homo sapiens, UniProt P61586); test: complementary radiolabeled nucleotide exchange assay on RhoA
Rap2A = target: T1, Rap2A (Homo sapiens, UniProt P10114); test: intrinsic guanine nucleotide exchange of Gpp(NH)p-preloaded Rap2A with mant-GTP (FRET); conditions: 1 μM RGS14 RBD protein, 100 nM Rap2A, 1 μM mant-GTP, 37° C., compared to Rap2A alone, p<0.05
T1 sequence (P10114 1-183): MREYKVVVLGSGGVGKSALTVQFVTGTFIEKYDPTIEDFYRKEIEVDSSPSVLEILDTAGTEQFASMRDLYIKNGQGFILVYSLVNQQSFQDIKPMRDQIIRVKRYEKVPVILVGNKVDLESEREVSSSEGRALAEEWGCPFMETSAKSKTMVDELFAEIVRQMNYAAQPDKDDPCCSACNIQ
Experimental: The intrinsic guanine nucleotide exchange rate of Gpp(NH)p-preloaded Rap2A (100 nM) was monitored with mant-GTP in the absence (solid) or presence (dashed) of the RBD tandem repeat (aa 300-447) from the putative Rap2A effector rat RGS14 (1 μM). In this example, 1 mL cuvettes were loaded with 1 μM mant-GTP (in 50 mM Tris pH 7.5, 5 mM MgCl2, 1 mM EDTA at 37° C.) and allowed to equilibrate prior to the addition of 100 nM Rap2A (preloaded with Gpp(NH)p) in the presence or absence of 1 μM of the RGS14 RBD protein. The dissociation of Gpp(NH)p was then measured by excitation of the tryptophan residue. The FRET-mediated excitation of bound mant-GTP was also measured. Binding of the RGS14 RBD repeat region to activated Rap2A prevents the loss of guanine nucleotide from the G-protein, thereby effectively acting as a guanine nucleotide dissociation inhibitor (GDI). Further, the incubation of Rap2A with the RGS14 tandem RBD repeat region slowed the rate of spontaneous nucleotide exchange by about 30% (p<0.05) when compared to that of Rap2A alone. Curves were fit as single exponential functions using GraphPad Prism™ (GraphPad Software, Inc.). […]

Sequence of H-Ras (P01112 whole entry, species assumed): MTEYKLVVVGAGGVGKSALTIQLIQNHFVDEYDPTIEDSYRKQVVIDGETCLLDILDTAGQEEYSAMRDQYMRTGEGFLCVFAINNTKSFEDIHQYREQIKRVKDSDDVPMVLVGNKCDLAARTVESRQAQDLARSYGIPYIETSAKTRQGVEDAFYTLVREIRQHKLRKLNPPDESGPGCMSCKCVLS
Sequence of RhoA (P61586 whole entry, species assumed): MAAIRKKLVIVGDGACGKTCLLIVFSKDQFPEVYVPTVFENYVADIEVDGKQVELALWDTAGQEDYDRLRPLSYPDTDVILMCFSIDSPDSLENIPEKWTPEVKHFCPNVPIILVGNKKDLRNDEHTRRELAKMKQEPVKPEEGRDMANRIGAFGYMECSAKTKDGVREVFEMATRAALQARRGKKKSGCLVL
Sequence of Dbs-mediated activation of RhoA (P61586 whole entry): as the sequence (P61586 whole entry, species assumed) above
Sequence of Cdc42 (P60953 whole entry, species assumed): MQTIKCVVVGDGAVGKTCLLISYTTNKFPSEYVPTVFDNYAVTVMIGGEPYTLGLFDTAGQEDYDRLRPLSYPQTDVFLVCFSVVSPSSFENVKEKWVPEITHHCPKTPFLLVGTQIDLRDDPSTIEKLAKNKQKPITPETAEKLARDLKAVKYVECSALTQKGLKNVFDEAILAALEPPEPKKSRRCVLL

effect on Dbs-mediated RhoA activation / guanine nucleotide exchange [1]: inhibit guanine nucleotide exchange
Molecule: Nc1nc2c(ncn2[C@@H]2O[C@H](COP(=O)(O)OP(=O)(O)O)[C@@H](O)[C@H]2O)c(=O)[nH]1 [GDP]

Molecule: O=C(O)C=Cc1ccc[c]([SbH]([O-])([OH])[OH])c1 [NSC#13778, 3-(3-(dihydroxy(oxido)stibino)phenyl)acrylic acid]
activity in complementary radiolabeled assay (Rac1) (Rac1): confirmed
enhancement of nucleotide exchange on Cdc42 (Cdc42): does not enhance nucleotide exchange
enhancement of nucleotide exchange on H-Ras (H-Ras): does not enhance nucleotide exchange
effect on GEF-mediated nucleotide exchange on Rac1 ([2]; NCI Diversity Set screen, 96-well kinetic format, secondary studies in 1 mL total volume): accelerated kinetics; also recorded: enhancing Tiam1-mediated Rac1 activation in a dose-dependent manner; also recorded: accelerates GEF-mediated nucleotide exchange on Rac1 in a dose-dependent manner
EC50 ([2]; acceleration of GEF-mediated nucleotide exchange on Rac1): ~4 µM
enhancement of nucleotide exchange on RhoA (RhoA): does not enhance nucleotide exchange

slowing of the rate of spontaneous nucleotide exchange of Rap2A (Rap2A): about 30%
B1: RGS14 tandem RBD repeat region: RBD tandem repeat (aa 300-447) from the putative Rap2A effector rat RGS14 (protein, UniProt O08773 300-447, looked up, fragment)
chain: KYCCVYLPDGTASLALARPGLTIRDMLAGICEKRGLSLPDIKVYLVGKEQKALVLDQDCTVLADQEVRLENRITFQLELVGLERVVRISAKPTKRLQEALQPILAKHGLSLDQVVLHRPGEKQLVDLENLVSSVASQTLVLDTLPDAK
